One data set deals with H1299 cells. Kind of data set: Radiotracer uptake in H1299 cells. It is filed as cell-based, human. On the procedure:
Temporal changes in cell-associated radioactivity in drug-treated cells or vehicle cells were measured with [18F]-C-SNAT4. Data are means±SD (n=3 per group). *, P<0.05; **, P<0.01; ***, P<0.005; *****, P<0.0001.
Radiotracer uptake in cells: H460 and H1299 cells (2×10^5) were plated in 6-well cell culture plates over night before [^18F]-C-SNAT4 uptake analysis. […] After 24 h treatment, fresh, prewarmed RPMI Medium 1640 containing 1.48 MBq (40 μCi) [^18F]-C-SNAT4 was added to individual wells (1 ml/well; 13.3 pmol). At post 10, 30, 60 min, medium was removed, cells were lifted by trypsinization, and washed three-times with cold PBS. Radioactivity contained in cell pellets was measured using a gamma counter, with counts normalized to total protein concentration as determined by cell digestion using RIPA buffer followed by protein quantitation by the Bradford method. The final radiotracer [^18F]-C-SNAT4 uptake concentration was expressed as μM of % uptake/mg protein. Results were normalized to a vehicle control (PBS for [^18F]-C-SNAT4 experiments at different time-points) which was washed.

The nature of data set [1]: Stability of [18F]-C-SNAT4 in mouse serum (HPLC). It is filed as in vitro ADME. Particulars: 37° C., over 2 h incubation. On the procedure:
FIG. 1B illustrates the serum stability of [^18F]-C-SNAT4 in mouse serum. [^18F]-C-SNAT4 was incubated in serum at 37° C. and analyzed by HPLC.
(§1) At 24 h post treatment, mixture tracer of [^19F]-C-SNAT4 was injected with [^18F]-C-SNAT4 (mixture ratio at 1:200) through the tail vein for PET imaging (FIG. 24A-24C). For treated animal, tumor uptake of mixture tracer [^18F]/[^19F]-C-SNAT4 and [^18F]-C-SNAT4 were 2.9±0.3% ID/cc and 1.7±0.1% ID/cc, respectively at 85 min post injection. There was 1.7-fold increase of radioactivity in the mixture-treated mice. Overall, the uptake of [^18F]-C-SNAT4 was increased both in radiation and drug-treated tumors. In contrast, the tumor uptake of [^18F]/[^19F]-C-SNAT4 (ratio at 1:200) and [^18F]/[^19F]-C-SNAT4 (ratio at 1:80) in untreated tumor was 0.5±0.2% ID/cc and 0.3±0.2% ID/cc, respectively at 85 min after injection (FIG. 25A-25C), followed by a rapid signal decay back to baseline within a few minutes. There were no changes compared to the uptake of [^18F]-C-SNAT4 (0.4±0.1% ID/cc). […] The sample was centrifuged at 13,400 g for 10 min and […] of the resultant supernatant was diluted with […] of water and analyzed on HPLC. % intact tracer was calculated as %=(peak area for tracer/total peak area on the HPLC chromatogram)×100.

Data set [2] is described as follows: Blood half-life in healthy nude mice after intravenous injection. It is filed as in vivo. From the text:
FIG. 21 illustrates blood half-life in healthy nude mice after intravenous injection of [^18F]-C-SNAT4 (n=4).

Data set [3] in a line: Stability of [18F]-C-SNAT4 in human serum (HPLC). It is filed as in vitro ADME. The conditions noted are these: 37° C., over 2 h incubation. On the procedure: FIG. 10 illustrates serum stability of [^18F]-C-SNAT4 in human serum. [^18F]-C-SNAT4 was incubated in serum at 37° C. and analyzed by HPLC.
as §1

The results in this text go back to patent US11679168B2, “Caspase-3-triggered molecular self-assembling PET probes and uses thereof” (The Board of Trustees of the Leland Stanford Junior …, priority 2018, dated 2023).

Molecules are shown by their SMILES.

Consider `CCSSCC(NC(=O)C(CC(=O)O)NC(=O)C(NC(=O)C(CCC(=O)O)NC(=O)C(CC(=O)O)NC(C)=O)C(C)C)C(=O)NCC(=O)NC(Cc1cn(CCOCCOCCOCC[18F])nn1)C(=O)NCc1ccc(C(=O)NCCCOc2cnc(C#N)nc2)cc1` (centres unmarked) [[^18F]-C-SNAT4], for which the “difference in uptake, drug-treated versus untreated” value with H1299 cells (H1299, high dose, 60 min) was “no difference”. For the same compound, the cell uptake in the data set with H1299 cells (cisplatin high dose (13.5 μM, 24 h) treated H1299, 30 min post incubation) is reported as 4.0±0.3 % radioactivity/mg protein; in the data set with H1299 cells (cisplatin low dose (4.5 μM, 24 h) treated H1299, 60 min), 0.3±0.1 % uptake/mg protein; in the data set with H1299 cells (control group H1299 (high dose experiment), 30 min post incubation), 2.5±0.6 % radioactivity/mg protein; in the data set on H1299 cells (naïve H1299 (low dose experiment), 60 min), 0.2±0.1 % uptake/mg protein. In addition, the figures for the “percentage of [18F]-C-SNAT4 remained” value in data set [1] and in data set [3] were 77.2% and 77.5%, respectively. In addition, in data set [2] (by 2 h after administration), the “elimination from the blood” value was “nearly complete elimination”. The compound also had a peak blood concentration in data set [2] (healthy nude mice, after 5 min) of 15.21±2.66 % ID/g. This compound also showed a blood life in data set [2] (healthy nude mice, i.v.) of 0.4 ± 0.1 h. In data set [2] (healthy nude mice, i.v., n=4), the blood half-life stood at 21.6 ± 6.6 min.
